Patent US20240228497A1, “Pyrrolo[2, 3-b]Pyrazine-Based Bifunctional Compounds as HPK1 Degraders and the Use Thereof” (BeiGene, Ltd., priority 2021, published 2024)

Assays:
[1] = target: T1, HPK1 kinase (aa1-346, Life Technologies) (Homo sapiens, UniProt Q92918); assay: HPK Kinase Activity Assay at 1 mM ATP (TR-FRET); assay type: biochemical; details: HPK1 kinase 40 nM, 0.5 μM STK1 substrate, 60 min preincubation, read-out: Enzymatic activity IC50
T1 construct: HPK1 kinase (aa1-346, Life Technologies); purchased Life Technologies
T1 sequence (Q92918 1-346): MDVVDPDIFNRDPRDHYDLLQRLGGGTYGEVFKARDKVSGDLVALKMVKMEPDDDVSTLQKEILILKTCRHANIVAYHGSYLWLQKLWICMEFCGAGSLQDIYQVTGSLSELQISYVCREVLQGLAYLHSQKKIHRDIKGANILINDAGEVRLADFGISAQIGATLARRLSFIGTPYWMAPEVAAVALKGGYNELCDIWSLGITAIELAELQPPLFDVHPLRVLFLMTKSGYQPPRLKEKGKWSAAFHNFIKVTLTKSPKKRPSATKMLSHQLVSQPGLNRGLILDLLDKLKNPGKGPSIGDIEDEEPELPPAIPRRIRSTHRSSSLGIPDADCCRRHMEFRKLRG
Procedure: HPK Kinase Activity Assay at 1 mM ATP
Compounds disclosed herein were tested for inhibition of HPK1 kinase (aa1-346, Life Technologies) activity in assays based on the time-resolved fluorescence-resonance energy transfer (TR-FRET) methodology. The assays were carried out in 384-well low volume black plates in a reaction mixture containing HPK1 kinase (40 nM), 1 mM ATP, 0.5 μM STK1 substrate and 0-10 μM compound in buffer containing 50 mM HEPES, 0.01% BSA, 0.1 mM Orthovanadate, 10 mM MgCl2, 1 mM DTT, pH=7.0, 0.005% Tween-20. The kinase was incubated with the compounds disclosed herein or DMSO for 60 minutes at room temperature and the reaction was initiated by the addition of ATP and STK1 substrate. After reaction at room temperature for 120 minutes, an equal volume of stop/detection solution was added according to the manufacture's instruction (CisBio). The stop/detection solution contained STK Antibody—Cryptate and XL665-conjugated streptavidin in Detection Buffer. The TR-FRET signals (ratio of fluorescence emission at 665 nm over emission at 620 nm with excitation at 337 nm wavelength) were recorded on a PHERAstar FS plate reader (BMG Labtech). Phosphorylation of STK1 substrate led to the binding of STK Antibody—Cryptate to the biotinylated STK1 substrate, which places fluorescent donor (Eu^3+ crypate) in close proximity to the accepter (Streptavidin-XL665), thus resulting in a high degree of fluorescence resonance energy transfer. The inhibition of HPK1 in presence of increasing concentrations of compounds was calculated based on the ratio of fluorescence at 665 nm to that at 620 nm. IC50 determination was performed by fitting the curve of percent inhibition versus the log of the inhibitor concentration using Dotmatics.

[2] = tested on: pSLP76 (S376) level in Jurkat cell line; assay: Cellular pSLP76(S376) HTRF Assay in Jurkat cells; assay type: cell-based; details: 2 h compound treatment, stimulated with 0.05 μg/mL anti-human CD3 (OKT3) for 30 min
Procedure: Cellular pSLP76(S376) HTRF Assay
Jurkat cell line was used in this study. Cells were maintained in RPMI 1640 supplemented with heat-inactivated 10% fetal bovine serum (Thermo Fisher), 50 units/mL penicillin and streptomycin (Thermo Fisher) and kept at 37° C. in a humidified atmosphere of 5% CO2 in air. Cells were reinstated from frozen stocks that were laid down within 30 passages from the original cells purchased. After cell starvation in the assay buffer (RPMI 1640 supplemented with heat-inactivated 0.1% fetal bovine serum) for 18 hours, cells were seeded into a round bottom 96-well plate at 150,000 cells per well density. Cells were treated with a 9-point dilution series of test compounds. The final compound concentration is from 0 to 2 μM. After 2 h compound treatment, cells were stimulated with 0.05 μg/mL anti-human CD3 (OKT3, Bioxcell) for 30 min at 37° C. Then the cells were lysed, and the pSLP76 (S376) level in the cell lysates was detected by HTRF kit (Cisbio). A total of 16 μL of cell lysate from each well of a 96-well plate was transferred to a 384-well small volume white assay plate. Lysate from each well was incubated with 2 μL of Eu^3+-cryptate (donor) labeled anti-phospho-SLP76 and 2 μL of D2 (acceptor) labeled anti-phospho-SLP76 antibodies (Cisbio) overnight in dark at room temperature. FRET signals (655 nm) were measured using a PHERAstar FSX reader (BMG Labtech). IC50 determination was performed by fitting the curve of percent inhibition versus the log of the inhibitor concentration using Dotmatics.

[3] = target: T2, HPK1 protein (Homo sapiens, UniProt Q92918); assay: HPK1 Protein Degradation Assay in Human PBMC (FACS); assay type: cell-based; details: 24 h compound treatment
T2 construct: host or cells: human PBMC (CD4+ and CD8+ T cells gated in the FACS assay)
Procedure: HPK1 Protein Degradation Assay in Human PBMC (FACS)
Human PBMCs (AllCells) was used in this study. Cells were thawed one day in advance and maintained in RPMI-1640 supplemented 10% fetal bovine serum (Thermo Fisher), 50 units/mL penicillin and streptomycin (Thermo Fisher) and the mixture was kept at 37° C. in a humidified atmosphere air containing 5% CO2. 3×10^6 PBMCs per well in 95 μL culture medium were seed in the 96-well plate, and the cells were treated with an appropriate dilution series of compounds. After 24 h compound treatment, 100 μL 1xLyse/Fix buffer (BD, diluted with water, warm up in 37° C.) was added to cells and the cells were incubated at 37° C. for 10 minutes. After fixed, the cells were transferred to V-bottom plates (Corning), and washed with FACS buffer (cold 2% FBS DPBS). The cells were permeabilized by adding 100 μL pre-chilled BD Phosflow Perm Buffer III (BD) for 30 min on ice. After washed with FACS buffer twice, the cells were incubated with 50 μL antibody cocktail (HPK1(CST)(1:50), anti-human CD4 BV421 (BD)(1:25), anti-human CD8 APC(BD) (1:25)) at room temperature for 1 h. After washed with FACS buffer twice, the cells were further incubated with 50 μL secondary antibody cocktail (Biolegend) (1:50) at room temperature for 1 h. After washed with FACS buffer twice, the signals were detected by BD FACS Celesta. The data were analyzed by Excel and GraphPad Prism 8.

[4] = target: T2, HPK1 protein; assay: HPK1 Protein Degradation Assay in Human PBMC (Western Blot); assay type: cell-based; details: 24 h compound incubation
Procedure: HPK1 Protein Degradation Assay in Human PBMC (Western Blot)
Human PBMCs (AllCells) was used in this study. Cells were thawed one day in advance and maintained in RPMI-1640 supplemented 10% fetal bovine serum (Thermo Fisher), 50 units/mL penicillin and streptomycin (Thermo Fisher) and the mixture was kept at 37° C. in a humidified atmosphere air containing 5% CO2. 3×10^6 PBMCs per well in 1 mL culture medium were seeded in the 12-well plate, and the cells were treated with an appropriate dilution series of compounds with a final concentration up to […]. After 24 h of compound incubation, the medium was aspirated, the cells were washed with PBS, and then 30 μL of 1X protein lysis buffer (Cell Signaling Technology) containing protease inhibitors (Merck) and phosphatase inhibitors (Sigma) was added. The cells were lysed. After centrifugation, the supernatants were quantified by BCA protein assay kit (Thermo Fisher). 4X loading Buffer (Thermo Fisher) was added to equal amounts of total protein from each sample and heated at 95° C. for 5 minutes. 30-50 μg of cell lysate was loaded onto a 4%-12% NuPAGE Bis-Tris Gel (Thermo Fisher) and electro-transferred to NC membranes (Thermo Fisher). The membranes were blocked for least 1 hour with blocking reagent (LI-COR), and then incubated overnight with anti-HPK1 (Cell Signaling Technology, 4472S) antibodies and as loading control anti-ß-actin (Cell Signaling Technology, 3700S) or anti-GAPDH (Cell Signaling Technology, 97166S) at 4° C. with gentle shaking. The membranes were washed three times with TBST, and incubated at least 1 hour at room temperature with anti-mouse or anti-rabbit secondary fluorescent antibody (Thermo Fisher, A32729; LI—COR, 926-32213). Then the membranes were washed three times in TBST, and one time in water. Immunoreactive bands were visualized by Odyssey CLx and analyzed by GraphPad Prism 8.

[5] = CD4+ T Cells, read-out: Protein degradation DC50, CD4+ T Cells
[6] = CD4+ T Cells, read-out: Protein degradation Dmax, CD4+ T Cells
[7] = CD8+ T Cells, read-out: Protein degradation DC50, CD8+ T Cells
[8] = CD8+ T Cells, read-out: Protein degradation Dmax, CD8+ T Cells

T2 sequence (Q92918 whole entry): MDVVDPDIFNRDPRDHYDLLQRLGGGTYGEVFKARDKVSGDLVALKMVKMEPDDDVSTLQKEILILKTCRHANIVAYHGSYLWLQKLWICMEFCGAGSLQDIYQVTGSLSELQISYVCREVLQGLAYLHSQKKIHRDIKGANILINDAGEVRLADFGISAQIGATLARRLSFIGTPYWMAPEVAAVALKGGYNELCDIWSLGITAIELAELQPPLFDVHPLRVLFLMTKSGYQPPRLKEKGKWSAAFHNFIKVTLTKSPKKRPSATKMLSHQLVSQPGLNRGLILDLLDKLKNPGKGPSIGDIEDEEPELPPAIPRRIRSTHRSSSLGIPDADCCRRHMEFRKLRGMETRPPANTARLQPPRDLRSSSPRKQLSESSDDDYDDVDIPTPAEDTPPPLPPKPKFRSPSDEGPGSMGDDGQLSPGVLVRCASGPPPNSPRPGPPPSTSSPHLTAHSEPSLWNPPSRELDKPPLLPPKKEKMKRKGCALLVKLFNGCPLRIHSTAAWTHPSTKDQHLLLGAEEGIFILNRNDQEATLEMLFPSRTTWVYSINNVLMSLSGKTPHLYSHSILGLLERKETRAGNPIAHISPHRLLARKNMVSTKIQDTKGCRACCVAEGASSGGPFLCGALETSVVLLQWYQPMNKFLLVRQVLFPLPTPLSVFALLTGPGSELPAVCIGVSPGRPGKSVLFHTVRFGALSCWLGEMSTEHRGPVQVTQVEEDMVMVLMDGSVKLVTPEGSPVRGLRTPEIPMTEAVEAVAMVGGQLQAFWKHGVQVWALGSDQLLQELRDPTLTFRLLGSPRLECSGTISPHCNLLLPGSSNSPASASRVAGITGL

| IC50 [1] [nM] | IC50 [2] [nM] | Protein degradation DC90, CD4+ T Cells ([3]; CD4+ T Cells) [nM] | DC50 [3, 5] [nM] | Dmax [3, 6] [%] | Protein degradation DC90, CD8+ T Cells ([3]; CD8+ T Cells) [nM] | DC50 [3, 7] [nM] | Dmax [3, 8] [%] | DC50 [4] [nM] | Dmax [4] [%] | Protein degradation DC90 [4] [nM] | SMILES |
| --- | --- | --- | --- | --- | --- | --- | --- | --- | --- | --- | --- |
| 16 | 181 | 77 | 19 | 93 | 495 | 71 | 95 | – | – | – | Cc1cc(-c2cnc3[nH]cc(-c4ccc(C(=O)N(C)C[C@H](C)O)cc4)c3c2)cc2c1CN(CCC(=O)N1CCN(c3ccc(N4CCC(=O)NC4=O)cc3)CC1)CC2 [Example 9, (S)-4-(5-(2-(3-(4-(4-(2,4-dioxotetrahydropyrimidin-1(2H)-yl)phenyl)piperazin-1-yl)-3-oxopropyl)-8-methyl-1,2,3,4-tetrahydroisoquinolin-6-yl)-1H-pyrrolo[2,3-b]pyridin-3-yl)-N-(2-hydroxypropyl)-N-methylbenzamide] |
| 61 | 193 | – | – | – | – | – | – | 23 | 97 | 215 | Cc1cc(-c2c[nH]c3ncc(-c4cc(C)c5c(c4)CCN(CCC(=O)N4CCN(c6ccc(N7CCC(=O)NC7=O)cc6)CC4)C5)nc23)ccc1C(=O)N(C)C [Example 3, 4-(2-(2-(3-(4-(4-(2,4-dioxotetrahydropyrimidin-1(2H)-yl)phenyl)piperazin-1-yl)-3-oxopropyl)-8-methyl-1,2,3,4-tetrahydroisoquinolin-6-yl)-5H-pyrrolo[2,3-b]pyrazin-7-yl)-N,N,2-trimethylbenzamide] |
| 24 | 116 | 60 | 9 | 95 | 128 | 17 | 96 | – | – | – | Cc1cc(-c2cnc3[nH]cc(-c4ccc(C(=O)N(C)C)cc4)c3n2)cc2c1CN(CCC(=O)N1CCN(c3ccc(N4CCC(=O)NC4=O)cc3)CC1)CC2 [Example 5, 4-(2-(2-(3-(4-(4-(2,4-dioxotetrahydropyrimidin-1(2H)-yl)phenyl)piperazin-1-yl)-3-oxopropyl)-8-methyl-1,2,3,4-tetrahydroisoquinolin-6-yl)-5H-pyrrolo[2,3-b]pyrazin-7-yl)-N,N-dimethylbenzamide] |
| 20 | 307 | 118 | 25 | 95 | 388 | 45 | 95 | – | – | – | Cc1cc(-c2cnc3[nH]cc(-c4ccc(C(=O)N(C)C[C@H](C)O)cc4)c3n2)cc2c1CN(CCC(=O)N1CCN(c3ccc(N4CCC(=O)NC4=O)cc3)CC1)CC2 [Example 7, (S)-4-(2-(2-(3-(4-(4-(2,4-dioxotetrahydropyrimidin-1(2H)-yl)phenyl)piperazin-1-yl)-3-oxopropyl)-8-methyl-1,2,3,4-tetrahydroisoquinolin-6-yl)-5H-pyrrolo[2,3-b]pyrazin-7-yl)—N-(2-hydroxypropyl)—N-methylbenzamide] |
| 297 | 496 | – | – | – | – | – | – | – | – | – | Cc1cc(-c2c[nH]c3ncc(-c4cc(C)c5c(c4)CCN(CCNC(=O)CC4CCN(c6ccc(C7CCC(=O)NC7=O)cc6)CC4)C5)nc23)ccc1C(=O)N(C)C (stereo not drawn) [Example 8, 4-(2-(2-(2-(2-(1-(4-(2,6-dioxopiperidin-3-yl)phenyl)piperidin-4-yl)acetamido)ethyl)-8-methyl-1,2,3,4-tetrahydroisoquinolin-6-yl)-5H-pyrrolo[2,3-b]pyrazin-7-yl)-N,N,2-trimethylbenzamide] |
| 31 | 88 | 52 | 11 | 96 | 104 | 16 | 96 | – | – | – | Cc1cc(-c2cnc3[nH]cc(-c4ccc(C(=O)N(C)C)cc4)c3c2)cc2c1CN(CCC(=O)N1CCN(c3ccc(N4CCC(=O)NC4=O)cc3)CC1)CC2 [Example 6, 4-(5-(2-(3-(4-(4-(2,4-dioxotetrahydropyrimidin-1(2H)-yl)phenyl)piperazin-1-yl)-3-oxopropyl)-8-methyl-1,2,3,4-tetrahydroisoquinolin-6-yl)-1H-pyrrolo[2,3-b]pyridin-3-yl)-N,N-dimethylbenzamide] |
